The source of these data is US8440707B2, “Antagonists of lysophosphatidic acid receptors” (Amira Pharmaceuticals, Inc., priority 2008, dated 2013).

Assay [1] has as its system bleomycin-induced lung fibrosis. Briefly: Bleomycin-induced lung fibrosis model in mice. The class given is in vivo. The source says: Female CD-1 mice (Harlan, 25-30 g) are housed 4 per cage, given free access to food and water and allowed to acclimate for at least 7 days prior to test initiation. After the habituation phase, mice are lightly anesthetized with isoflurane (5% in 100% O2) and administered with bleomycin sulfate (0.01-5 U/kg, Henry Schein) via intratracheal instillation (Cuzzocrea S et al. Am J Physiol Lung Cell Mol. Physiol. 2007 May; 292(5):[…]-104. Epub 2007 Jan. 12). Mice are returned to their cages and monitored daily for the duration of the experiment. Test compound or vehicle is delivered po, ip or sc daily. The route and frequency of dosing is based on previously determined pharmacokinetic properties. All animals are sacrificed using inhaled isoflurane 3, 7, 14, 21 or 28 days after bleomycin instillation. Following sacrifice, mice are intubated with a 20 gauge angiocatheter attached to a 1 ml syringe. Lungs are lavaged with saline to obtain bronchoalveolar lavage fluid (BALF) and then removed and fixed in 10% neutral buffered formalin for subsequent histopathological analysis. BALF is centrifuged for 10 min at 800×g to pellet the cells and the cell supernatant removed and frozen at -80° C. for subsequent protein analysis using the DC protein assay kit (Biorad, Hercules, Calif.) and soluble collagen analysis using Sircol (Biocolor Ltd, UK). BALF is analyzed for concentrations of inflammatory, pro-fibrotic and tissue injury biomarkers including transforming growth factor β1, hyaluronic acid, tissue inhibitor of metalloproteinase-1, matrix matelloproteinase-7, connective tissue growth factor and lactate dehydrogenase activity, using commercially available ELISA. The cell pellet is re-suspended in PBS. Total cell counts are then obtained using a Hemavet hematology system (Drew Scientific, Wayne, Pa.) and differential cells counts are determined using Shandon cytospin (Thermo Scientific, Waltham, Mass.). Lung tissue is stained using hematoxylin and eosin (H&E) and trichrome and lung fibrosis is determined by semiquantitative histopathological scoring (Ashcroft T. et al. J. Clin. Path. 1988; 41; 4, 467-470) using light microscopy (10× magnification) and quantitative, computer-assisted densitometry of collagen in lung tissue sections using light microscopy. The data are plotted using Graphpad prism and statistical differences between groups determined.

Assay [2] concerns CCl4-induced liver fibrosis. Briefly: Mouse carbon tetrachloride (CCl4)-induced liver fibrosis model. The note with it: for collagen deposition in the liver: as compared to the untreated group. Type of assay: in vivo. As to the method: Female C57BL/6 mice (Harlan, 20-25 g) housed 4/cage are given free access to food and water and allowed to acclimate for at least 7 days prior to test initiation. After the habituation phase, mice receive CCl4 (0.5-1.0 ml/kg body weight) diluted in corn oil vehicle (100 μL volume) via i.p. injection twice a week for 4-6 weeks. (Higazi, A. A. et al., Clin Exp Immunol. 2008 April; 152(1):163-73. Epub 2008 Feb. 14). Control mice receive an equivalent volume of corn oil vehicle only. Test compound or vehicle is delivered po, ip or sc daily. At the end of the study (4-6 weeks after first i.p. injection of CCl4), mice are sacrificed using inhaled isoflurane and blood is drawn via cardiac puncture for subsequent analysis of ALT/AST levels. The liver is harvested, and one half of the liver is frozen at −80° C. and the other half is fixed in 10% neutral buffered formalin for histological assessment of liver fibrosis using light microscopy (10× magnification). Liver tissue homogenates are analyzed for collagen levels using Sircol (Biocolor Ltd, UK). Fixed Liver tissue is stained using hematoxylin and eosin (H&E) and trichrome and liver fibrosis is determined by quantitative, computer-assisted densitometry of collagen in liver tissue sections using light microscopy. Plasma and liver tissue lysates are also analyzed for concentrations of inflammatory, pro-fibrotic and tissue injury biomarkers including transforming growth factor β1, hyaluronic acid, tissue inhibitor of metalloproteinase-1, matrix matelloproteinase-7, connective tissue growth factor and lactate dehydrogenase activity, using commercially available ELISA. The resulting data are plotted using Graphpad prism and statistical differences between groups determined.

Assay [3] deals with highly peritoneal metastatic pancreatic cancer cell line. To be noted: cited from earlier work.
The test system of the next assay is renal fibrosis. The note with it: compared with LPA1 (−/−) mice, in which renal fibrosis was significantly attenuated; cited from earlier work.
The test system of assay [4] is pancreatic cancer cell lines. To be noted: cited from earlier work.
For another assay, the system named is bone metastasis. The note with it: cited from earlier work.
[5] abbreviates: chronic setting (14 and 28 day), single bleomycin (1.5 units/kg) instillation.
Setting [6] is: chronic setting, repeated bleomycin (3.0-5.0 units/kg/week) instillations.
Where [7] appears, read: chronic setting (14-days only), single bleomycin instillation (3.0 units).

On to `Cc1noc(-c2ccc(-c3ccc(CC(=O)O)cc3)cc2)c1NC(=O)O[C@H](C)c1ccccc1Cl` [Compound 27, (4′-{4-[(R)-1-(2-Chloro-phenyl)-ethoxycarbonylamino]-3-methyl-isoxazol-5-yl}-biphenyl-4-yl)-acetic acid], for which, in assay [1] (acute setting (3 day)), the “lactate dehydrogenase activity (LDH; tissue injury marker) in BALF” value is listed as “significantly reduced”, the “tissue inhibitor of metalloproteinase-1 (TIMP-1; pro-fibrotic marker) concentrations in BALF” value is “significantly reduced” and the “total protein in broncheoalveolar lavage fluid (BALF)” value is given as “significantly reduced”. In addition, in assay [1] (setting [5]), the fibrosis result is listed as “decreased”, the inflammatory cell influx entry is “decreased” and the mouse body weight entry is on record as “maintained”. Moreover, in assay [1] (setting [6]), the lung fibrosis entry was “decreased” and the pulmonary resistance entry was “decreased”. Moreover, the “effect on collagen deposition compared with pirfenidone” value in assay [2] (30 mg/kg, po, qd) is “same effect”. Also, the “collagen deposition in the liver” value in assay [2] is given as “significantly reduced”.

Turning to `Cc1noc(-c2ccc(CSCCC(=O)O)cc2)c1NC(=O)OC(C)c1ccccc1Cl` (centres unmarked) [Ki16425], the “LPA-induced and ascites-induced invasion activity” value in assay [3] is “blocked”. Moreover, the “development of renal fibrosis in UUO mice” value in the assay on renal fibrosis is listed as “closely resembled the LPA1 (−/−) mice”. The “in vitro migration in response to LPA and peritoneal fluid (ascites) from pancreatic cancer patients” value in assay [4] is on record as “effectively blocked”. Moreover, in the assay with bone metastasis, the “metastasis to bone in vivo” value is “inhibit”.

Turning to `Cc1noc(-c2ccc(-c3ccc(CC(=O)O)cc3)cc2)c1NC(=O)O[C@H](C)c1ccccc1` [Compound 37, {4′-[3-Methyl-4-((R)-1-phenyl-ethoxycarbonylamino)-isoxazol-5-yl]-biphenyl-4-yl}-acetic acid], the “lactate in the BALF” value in assay [1] (acute setting (3-day)) is listed as “reduced”. Further, in assay [1] (acute setting (3 day)), the “tissue inhibitor of metalloproteinase-1 (TIMP-1; pro-fibrotic marker) concentrations in BALF” value was “reduced” and the “total protein in broncheoalveolar lavage fluid (BALF)” value is listed as “reduced”. For the same compound, in assay [1] (setting [7]), the fibrosis result is recorded as “decreased” and the inflammatory cell influx entry is “decreased”. In addition, the “collagen deposition in the liver” value in assay [2] was “significantly reduced”.
